Measurements reported in PubChem BioAssay AID1508612.

experiment: passive permeability, PAMPA, ADME assay (AID 1508612); conditions: pH 7.4, 30.0 min, 50.0 µM

Row | Papp [×10⁻⁶ cm/s] | Structure (SMILES)
1 | > 1000 | Cn1cc2c3c(cccc31)CN(C(=O)c1ccc(F)c(Cl)c1)CC2
2 | 1.1 | O=C(Nc1ccccc1)C1CC(=O)N(c2n[nH]c3cc(Br)ccc23)C1 (stereo not drawn)
3 | 329 | COc1ccc(C2Nc3ccccc3C(=O)N2Cc2ccco2)cc1COc1ccc(NC(C)=O)cc1 (stereo not drawn)
4 | > 1000 | CNc1nc(C#N)c(-c2cccc3ccccc23)o1
5 | 7.71 | Cc1ccc(S(=O)(=O)Nc2cc(Br)ccc2C(=O)Nc2nc(-c3ccccc3)cs2)cc1
6 | < 1 | O=C(NCCc1cnc[nH]1)c1ccc(-c2ncc3cnc(-c4cccc(F)c4)cn23)cc1
7 | < 1 | Oc1ccc(CNc2cccc(F)c2)c2cccnc12
8 | 540 | C[S+](=O)([O-])c1ccc(-c2nc(C(=O)NCc3cccnc3)n3ccccc23)cc1
9 | 14.6 | O=C(Nc1ccc(OC(F)(F)Cl)cc1)c1cnc(N2CC[C@@H](O)C2)c(-c2ccn[nH]2)c1
10 | 729 | Cc1ccc(S(=O)(=O)Nc2cnccc2C(=O)Nc2nc(-c3cccc(C)c3)cs2)cc1
11 | > 1000 | Cc1ccc(S(=O)(=O)Nc2ccccc2C(=O)Nc2nc(-c3ccccc3)cs2)cc1
12 | > 1000 | Cc1cnc(-c2ccccc2C(F)F)nc1NCc1ccc(-c2cccnc2)cc1
13 | 51.5 | Cc1ccc(S(=O)(=O)Nc2cnccc2C(=O)Nc2nc(-c3ccc(Cl)c(Cl)c3)cs2)cc1
14 | 371 | Fc1ccc(Nc2ccnc(-c3ccncc3)n2)cc1F
15 | 665 | O=C(NCC1(c2nc(-c3ccccc3)cs2)CCOCC1)c1cccc(-c2noc(C(F)(F)F)n2)c1
16 | 455 | FC(F)(F)c1cc(-c2ccc(CNc3nc(-c4ccccc4C(F)(F)F)nc4ccsc34)cc2)ccn1
17 | 877 | COc1ccc(OC)c(-c2nnc3ccc(-c4ccc(OC)c(O[C@@H]5CCOC5)c4)nn23)c1
18 | 530 | Cc1ccc(-c2csc(NC(=O)c3ccncc3NS(=O)(=O)c3ccc(C)cc3)n2)cc1
19 | > 1000 | CC(C)CNc1ccnc(NCc2csc(-c3ccccc3)n2)n1
20 | < 1 | Cc1ccc(S(=O)(=O)Nc2ccc(C)cc2C(=O)Nc2nc(-c3ccccc3)cs2)cc1
21 | 900 | COc1ccc(CN2C(=O)[C@@H]3C[C@@H](CN3Cc3cccs3)Oc3ccccc32)cc1
22 | 343 | Cc1cccc(-c2noc([C@@H]3Cc4nc[nH]c4CN3)n2)c1
23 | > 1000 | CCOc1ccc(CNc2ccc3c(c2)ncn3C)cc1
24 | 353 | COc1cccc2nc(-c3cccs3)nc(NN3C(=O)C=C(C)C3=O)c12

Row | Papp [×10⁻⁶ cm/s] | Structure (SMILES)
25 | 104 | Cc1ccc(S(=O)(=O)Nc2cnccc2C(=O)Nc2nc(-c3cccnc3)cs2)cc1
26 | < 1 | C[C@@H](O)CNC(C)(C)CC(=O)N[C@@H]1CCc2ccccc2N(Cc2ccc(-c3ccccc3-c3nn[nH]n3)cc2)C1=O
27 | 21.4 | CC(=O)Nc1ncc(S(=O)(=O)Nc2cnccc2C(=O)Nc2nc(-c3ccccc3)cs2)s1
28 | 739 | CCOC(=O)c1ccc(N2C(=O)c3n[nH]c(-c4cccs4)c3C2c2ccc(OCC)cc2)cc1 (stereo not drawn)
29 | 874 | CN(C(=O)c1cn2c(-c3ccc(C(F)(F)F)cc3)cnc2cn1)c1ccc(C#N)cc1
30 | 159 | CCN1CCN(C(=O)c2cc(-c3ccc(F)cc3)c3nncn3n2)CC1
31 | > 1000 | Cc1nn2c(c1-c1ccccc1-c1ccccc1)N(CC1CC1)CCC2
32 | > 1000 | COc1ccc(NC(=O)c2ccc[nH]2)cc1S(=O)(=O)Nc1ccc(Br)cc1
33 | 7.37 | O=S(=O)(Nc1ccc(S(=O)(=O)Nc2nccs2)cc1)c1ccc2ccccc2c1
34 | 705 | CCOC(=O)c1cnc2ccc(-c3cncc(NS(=O)(=O)c4ccccc4)c3)cn12
35 | 18.5 | O=C(Nc1ccc(-c2ccccc2)cc1)[C@H](Cc1ccc(O[S+](=O)([O-])c2cccc3cnccc23)cc1)N[S+](=O)([O-])c1cccc2cnccc12
36 | 6.3 | O=C(Nc1ccc(S(=O)(=O)Nc2nccs2)cc1)c1cc(-c2ccccc2)nc2ccccc12
37 | 383 | COc1cccc(C(=O)Nc2nc(-c3nnn(-c4ccccc4C(F)(F)F)c3C)ns2)c1
38 | 40.7 | C[C@@H](c1ccc2nccn2c1)n1nnc2ncc(-c3cnn(C)c3)nc21
39 | 25.1 | c1cc(-c2cc(-c3ccncc3)c3cncn3c2)c2[nH]ncc2c1
40 | > 1000 | CC(C)c1ccccc1-c1ncc(F)c(NCc2ccc(-c3cccnc3)s2)n1
41 | 952 | CC(C)(C)c1ccc(C(=O)Nc2cn3cc(-n4ccnc4)ccc3n2)cc1
42 | < 1 | O=C(NCCCn1ccnc1)c1ccc(-c2ncc3cnc(-c4cccc(F)c4)cn23)cc1
43 | > 1000 | Fc1cc(Nc2nc(-c3ccncc3)nc3ccccc23)ccc1N1CCCCC1
44 | 279 | N#Cc1ccc(S(=O)(=O)Nc2cnccc2C(=O)Nc2nc(-c3ccccc3)cs2)cc1
45 | 176 | O=C(Nc1ccc(-c2nc3cc(NC(=O)c4ccccc4Cl)ccc3o2)cc1)c1ccccc1Cl
46 | 106 | COc1ccc(-n2nc(C3CCCN(C(=O)Cc4ccccn4)C3)[nH]c2=O)cc1 (stereo not drawn)
47 | > 1000 | Cc1ccc(-c2cc(C(=O)NC3CCCCC3)c3ccccc3n2)cc1
48 | > 1000 | Cn1c(CN2CCCCC2)nc2cc(NC(=O)c3cccc(Br)c3)ccc21

The next lines start with the compound.

Row | Structure (SMILES) | Papp [×10⁻⁶ cm/s]
49 | CC1(C)CC(=O)C2=C(C1)NC(Nc1nc3ccccc3o1)=NC2c1ccccc1Cl (stereo not drawn) | > 1000
50 | Cc1c(NC2=C(Cl)C(=O)N(c3ccccc3)C2=O)c(=O)n(-c2ccccc2)n1C | 123
51 | CC1CCCCN1c1ncnc(N)c1[N+](=O)[O-] (stereo not drawn) | 269
52 | CNC(=O)c1nn(C)c2c1C(C)(C)Cc1cnc(Nc3ccc(N4CCN(C)CC4)cc3)nc1-2 | > 1000
53 | O=C(CCCN1CCC(O)(c2cccc(C(F)(F)F)c2)CC1)c1ccc(F)cc1 | > 1000
54 | CCOC(=O)c1ccnc(CNCC(=O)N(CC)CCN(C)C)c1 | 40.4
55 | CCC(Sc1nc2ccccc2c2nc(CCc3c(C)n[nH]c3C)nn12)C(=O)Nc1ccc(F)cc1 (stereo not drawn) | 37.9
56 | COC(=O)[C@@]12OC[C@]34[C@H]([C@@H](O)[C@@H]1O)[C@@]1(C)CC(=O)C(O)=C(C)[C@@H]1C[C@H]3OC(=O)[C@H](OC(=O)/C=C(\C)C(C)C)[C@@H]24 | 120
57 | O=C(Oc1ccc[nH]c1=O)c1cc([N+](=O)[O-])cc([N+](=O)[O-])c1 | 16.2
58 | CC(=O)N1CCc2cc(S(=O)(=O)NCCC3=CCCCC3)ccc21 | 444
59 | CN(C)c1cccc(-c2ncc(F)c(N3CCC(C(N)=O)CC3)n2)c1 | 599
60 | O=C(c1ccc2c(c1)ncn2-c1cccc(C(F)(F)F)c1)N1CCCCC1 | > 1000
61 | Cc1cc(C)nc(NC(=S)N2CCN(c3ccc(Cl)cc3F)CC2)c1 | > 1000
62 | O=C1Nc2ccccc2/C1=C/c1cc(Cl)c(O)c(Cl)c1 | 49
63 | Oc1ccc(NCc2ccccc2OCc2ccccc2Cl)cc1 | 79.5
64 | CC[C@@]1(O)C(=O)OCc2c1cc1n(c2=O)Cc2cc3ccccc3nc2-1 | 68.3
65 | COc1ccc(CNC(=O)c2sc3nc(C)cc(C)c3c2N)cc1 | > 1000
66 | Cc1ccnc(NC(=O)C2CC(=O)N(c3n[nH]c4cc(Br)ccc34)C2)c1 (stereo not drawn) | 563
67 | Nc1ncnc(N2CCc3ccccc32)c1[N+](=O)[O-] | 295
68 | Cn1cc(S(=O)(=O)N2CCCCCC2)cc1C(=O)Nc1ccc(Cl)c(C(F)(F)F)c1 | 305
69 | Nc1scc2c(C(=O)O)nn(-c3ccccc3)c(=O)c12 | < 1
70 | O=C(c1ccccc1)N1CCC(c2nn(-c3ccc(F)cc3)c(=O)[nH]2)CC1 | 679
71 | COC12C(COC(N)=O)C3=C(C(=O)C(C)=C(N)C3=O)N1CC1C2N1C (stereo not drawn) | 1.95
72 | CN(C)c1cccc(-c2ncnc(N3CCC(C(N)=O)CC3)n2)c1 | 244
73 | COc1cc2nc(N3CCCC3)nc(NCCCCCN3CCCC3)c2cc1OC | 2.4
74 | Brc1ccc(-c2csc(N3CCC(c4nn[nH]n4)CC3)n2)cc1 | 141
75 | O=C(c1ccc2c(c1)ncn2-c1ccc(C(F)(F)F)cc1)N1CCCCC1 | > 1000
76 | O=C(CCCCCCC(=O)Nc1ccccc1)NO | 63.4

Row | Structure (SMILES) | Papp [×10⁻⁶ cm/s]
77 | Cc1ccc(-c2cc(C(=O)Nc3ccc(S(=O)(=O)Nc4ccc(C#N)cc4)cc3)c3ccccc3n2)cc1C | < 1
78 | CC1=C(C(=O)NC2CCCC2)C(c2nn(C)cc2Cl)N=C(Nc2nc3ccccc3o2)N1 (stereo not drawn) | > 1000
79 | NC(=O)C1CCN(c2nc(-c3ccc(Br)cc3)cs2)CC1 | 241
80 | N=c1c2c(ccn1CCc1ccccc1)Oc1ccc3ccccc3c1C2c1ccccc1 (stereo not drawn) | 553
81 | CCOC(=O)N1CCN(Cc2nc3cc(NC(=O)c4ccc(OC)cc4)ccc3n2C(C)C)CC1 | > 1000
82 | Cc1c(-c2cccc3c(CCCOc4cccc5ccccc45)c(C(=O)O)n(Cc4cccnc4)c23)c(COc2ccc(N3CCN([S+](=O)([O-])N(C)C)CC3)cc2)nn1C | 244
83 | CC(C)(C)C1CCc2[nH]c3ccccc3c(=O)c2C1 (stereo not drawn) | 356
84 | O=C(NC1CCCc2c1[nH]c1ccccc21)c1ccccc1 (stereo not drawn) | 135
85 | OCc1ccc(-c2ccc(-c3ccc(CO)s3)o2)s1 | 956
86 | CCOc1ccc(N2CC(c3nc(-c4cc(OC)c(OC)c(OC)c4)no3)CC2=O)cc1 (stereo not drawn) | > 1000
87 | COc1ccc(CCn2c(N)cc(=O)[nH]c2=S)cc1OC | 7.34
88 | O=C(NCC1CCN(Cc2cccc(Cl)c2)CC1)Nc1ccc(F)c(Cl)c1 | > 1000
89 | COc1ccc(CNC(=O)CCCn2nc(C)c3c(C)n(-c4ccc(C)cc4)nc3c2=O)cc1OC | 235
90 | COc1ccc(-c2cnc(N3CCC(C(N)=O)CC3)s2)cc1OC | 336
91 | CC(=O)c1cccc(-c2csc(N3CCC(C(N)=O)CC3)n2)c1 | 328
92 | CCN(CC)C(=O)N1c2ccccc2C=Cc2ccccc21 | > 1000
93 | CC(=O)c1c(C)[nH]c(C(=O)Nc2cccc(S(=O)(=O)N3CCCCCC3)c2)c1C | > 1000
94 | CC1CCN(S(=O)(=O)c2ccc3c(c2)C(C)(C)C(=O)N3CC(=O)NCc2ccco2)CC1 | 584
95 | Cc1cc(-c2nnc3n2CCCCC3)c(C)n1-c1ccc(C(F)(F)F)cc1 | > 1000
96 | O=C(Nc1ncnc2sc3c(c12)CCC3)c1ccco1 | 369
97 | Cc1nc2nc(NC(=O)c3ccc(C(C)(C)C)cc3)[nH]n2c(=O)c1Cl | 8.91
98 | Cc1cc(C)nc(NC(=S)N2CCN(c3cccc(C(F)(F)F)n3)CC2)c1 | 589
99 | COc1c2c(c3c(c1CCC(=O)O)OC(C)(C)C=C3)OC(C)(C)C=C2 | 43.9
100 | COCC(C)Nc1ncnc2c1cnn2-c1ccc(C)c(C)c1 (stereo not drawn) | 690
101 | c1c[nH]c(C2CCN(c3ncc(-c4ccc5c(c4)OCCCO5)s3)CC2)n1 | > 1000
102 | CC(C)(C)OC(=O)N[C@@H](Cc1ccc(OS(=O)(=O)c2cccc3cnccc23)cc1)C(=O)N1CCCN(C(=O)OC(C)(C)C)CC1 | 818
103 | CCN(CC)C(=O)c1ccc(O)c(OC)c1 | 482
